This note sets out measurements from patent US9315520B2, “2-amino-6-methyl-4,4a,5,6-tetrahydropyrano[3,4-d][1,3]thiazin-8a(8H)-yl-1,3-thiazol-4-yl amides” (Pfizer Inc., priority 2014, dated 2016).

The target of this experiment is BACE1 (Homo sapiens (Human), UniProt P56817). The experiment can be described thus: BACE1 Cell-Free Assay (fluorescence polarization). The following applies: geometric mean of 2-4 determinations unless otherwise indicated (b: ≧5; c: single determination); read-out: BACE1 Cell-free Assay IC50. Type of experiment: biochemical. An excerpt:
This assay measures the inhibition of the beta-secretase enzyme as it cleaves a non-native peptide.
A synthetic APP substrate that can be cleaved by beta-secretase having N-terminal biotin and made fluorescent by the covalent attachment of Oregon Green at the Cys residue is used to assay beta-secretase activity in the presence or absence of the inhibitory compounds. […] The BACE1 enzyme is affinity purified material from conditioned media of CHO-K1 cells that have been transfected with a soluble BACE construct (BACE1deltaTM96His). […] Plates are covered and incubated for 3 hours at 37° C. […] The activity of the beta-secretase enzyme is detected by changes in the fluorescence polarization that occur when the substrate is cleaved by the enzyme.
Background: Polarisation of emitted light reports the rotation of a fluorescent probe.

Structures can show the parent of a compound that is named as a salt.

BACE1, sequence (P56817 46-457): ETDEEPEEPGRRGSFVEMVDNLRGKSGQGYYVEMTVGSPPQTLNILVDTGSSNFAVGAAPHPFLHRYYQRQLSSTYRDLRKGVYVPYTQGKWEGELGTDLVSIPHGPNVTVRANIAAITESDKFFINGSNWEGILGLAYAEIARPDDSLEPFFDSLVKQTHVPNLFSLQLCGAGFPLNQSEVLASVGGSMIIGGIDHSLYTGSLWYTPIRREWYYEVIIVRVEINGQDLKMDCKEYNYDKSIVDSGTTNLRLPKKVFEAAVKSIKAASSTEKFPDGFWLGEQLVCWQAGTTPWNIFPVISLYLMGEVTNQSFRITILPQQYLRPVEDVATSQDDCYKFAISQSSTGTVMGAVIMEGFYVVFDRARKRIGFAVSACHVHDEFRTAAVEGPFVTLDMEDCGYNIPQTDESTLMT

Turning to `C[C@H]1C[C@H]2CSC(N)=N[C@@]2(c2nc(NC(=O)c3coc(C(F)(F)F)n3)cs2)CO1` [Example 50, N-{2-[(4aR,6S,8aR)-2-amino-6-methyl-4,4a,5,6-tetrahydropyrano[3,4-d][1,3]thiazin-8a(8H)-yl]-1,3-thiazol-4-yl}-2-(trifluoromethyl)-1,3-oxazole-4-carboxamide], the IC50 – broadly, the point on the concentration scale where inhibition reaches its midpoint – was found to be 189 nM.

In the case of `Cc1noc(C(=O)Nc2csc([C@]34CO[C@@H](C)C[C@H]3CSC(N)=N4)n2)n1` [Example 51, N-{2-[(4aR,6S,8aR)-2-amino-6-methyl-4,4a,5,6-tetrahydropyrano[3,4-d][1,3]thiazin-8a(8H)-yl]-1,3-thiazol-4-yl}-3-methyl-1,2,4-oxadiazole-5-carboxamide], the IC50 was found to be 98 nM. The value for `Cc1nc(C(=O)Nc2csc([C@]34CO[C@@H](C)C[C@H]3CSC(N)=N4)n2)no1` [Example 52, N-{2-[(4aR,6S,8aR)-2-amino-6-methyl-4,4a,5,6-tetrahydropyrano[3,4-d][1,3]thiazin-8a(8H)-yl]-1,3-thiazol-4-yl}-5-methyl-1,2,4-oxadiazole-3-carboxamide] was 91 nM. The value for `Cc1nc(C(=O)Nc2csc([C@]34CO[C@@H](C)C[C@H]3CSC(N)=N4)n2)c(C)o1` [Example 53, N-{2-[(4aR,6S,8aR)-2-amino-6-methyl-4,4a,5,6-tetrahydropyrano[3,4-d][1,3]thiazin-8a(8H)-yl]-1,3-thiazol-4-yl}-2,5-dimethyl-1,3-oxazole-4-carboxamide] was 65 nM; that for `C[C@H]1C[C@H]2CSC(N)=N[C@@]2(c2nc(NC(=O)c3cnc(OCC4CC4)cn3)cs2)CO1` [Example 54, N-{2-[(4aR,6S,8aR)-2-amino-6-methyl-4,4a,5,6-tetrahydropyrano[3,4-d][1,3]thiazin-8a(8H)-yl]-1,3-thiazol-4-yl}-5-(cyclopropylmethoxy)pyrazine-2-carboxamide] was 161 nM; that for `C[C@H]1C[C@H]2CSC(N)=N[C@@]2(c2nc(NC(=O)c3cnc(OC4CC4)cn3)cs2)CO1` [Example 55, N-{2-[(4aR,6S,8aR)-2-amino-6-methyl-4,4a,5,6-tetrahydropyrano[3,4-d][1,3]thiazin-8a(8H)-yl]-1,3-thiazol-4-yl}-5-(cyclopropyloxy)pyrazine-2-carboxamide] was 519 nM. `C[C@@H](F)COc1cnc(C(=O)Nc2csc([C@]34CO[C@@H](C)C[C@H]3CSC(N)=N4)n2)cn1` [Example 56, N-{2-[(4aR,6S,8aR)-2-amino-6-methyl-4,4a,5,6-tetrahydropyrano[3,4-d][1,3]thiazin-8a(8H)-yl]-1,3-thiazol-4-yl}-5-{[(2R)-2-fluoropropyl]oxy}pyrazine-2-carboxamide]: the IC50 was 360 nM.

Turning to `C[C@H](F)COc1cnc(C(=O)Nc2csc([C@]34CO[C@@H](C)C[C@H]3CSC(N)=N4)n2)cn1` [Example 57, N-{2-[(4aR,6S,8aR)-2-amino-6-methyl-4,4a,5,6-tetrahydropyrano[3,4-d][1,3]thiazin-8a(8H)-yl]-1,3-thiazol-4-yl}-5-{[(2S)-2-fluoropropyl]oxy}pyrazine-2-carboxamide], the IC50 was 372 nM.

As for `C[C@H]1C[C@H]2CSC(N)=N[C@@]2(c2nc(NC(=O)c3cnc(OCC(C)(F)F)cn3)cs2)CO1` [Example 58, N-{2-[(4aR,6S,8aR)-2-amino-6-methyl-4,4a,5,6-tetrahydropyrano[3,4-d][1,3]thiazin-8a(8H)-yl]-1,3-thiazol-4-yl}-5-(2,2-difluoropropoxy)pyrazine-2-carboxamide], the IC50 worked out at 161 nM.

For `Cc1nc(C)c(C(=O)Nc2csc([C@]34CO[C@@H](C)C[C@H]3CSC(N)=N4)n2)o1` [Example 59, N-{2-[(4aR,6S,8aR)-2-amino-6-methyl-4,4a,5,6-tetrahydropyrano[3,4-d][1,3]thiazin-8a(8H)-yl]-1,3-thiazol-4-yl}-2,4-dimethyl-1,3-oxazole-5-carboxamide, trifluoroacetate salt], the IC50 is 740 nM. As to `C[C@H]1C[C@H]2CSC(N)=N[C@@]2(c2nc(NC(=O)c3cn(C)nc3C(F)(F)F)cs2)CO1` [Example 60, N-{2-[(4aR,6S,8aR)-2-amino-6-methyl-4,4a,5,6-tetrahydropyrano[3,4-d][1,3]thiazin-8a(8H)-yl]-1,3-thiazol-4-yl}-1-methyl-3-(trifluoromethyl)-1H-pyrazole-4-carboxamide, trifluoroacetate salt], the IC50 turned out to be 3840 nM. The value for `CC(C)n1cnc(C(=O)Nc2csc([C@]34CO[C@@H](C)C[C@H]3CSC(N)=N4)n2)c1` [Example 61, N-{2-[(4aR,6S,8aR)-2-amino-6-methyl-4,4a,5,6-tetrahydropyrano[3,4-d][1,3]thiazin-8a(8H)-yl]-1,3-thiazol-4-yl}-1-(propan-2-yl)-1H-imidazole-4-carboxamide, trifluoroacetate salt] was 1830 nM; that for `CC(C)Cc1cc(C(=O)Nc2csc([C@]34CO[C@@H](C)C[C@H]3CSC(N)=N4)n2)no1` [Example 62, N-{2-[(4aR,6S,8aR)-2-amino-6-methyl-4,4a,5,6-tetrahydropyrano[3,4-d][1,3]thiazin-8a(8H)-yl]-1,3-thiazol-4-yl}-5-(2-methylpropyl)-1,2-oxazole-3-carboxamide, trifluoroacetate salt] was 9690 nM.

For `C[C@H]1C[C@H]2CSC(N)=N[C@@]2(c2nc(NC(=O)c3cnn(C)c3)cs2)CO1` [Example 63, N-{2-[(4aR,6S,8aR)-2-amino-6-methyl-4,4a,5,6-tetrahydropyrano[3,4-d][1,3]thiazin-8a(8H)-yl]-1,3-thiazol-4-yl}-1-methyl-1H-pyrazole-4-carboxamide, trifluoroacetate salt], the IC50 stood at 3940 nM. The value for `Cc1cc(C(=O)Nc2csc([C@]34CO[C@@H](C)C[C@H]3CSC(N)=N4)n2)no1` [Example 64, N-{2-[(4aR,6S,8aR)-2-amino-6-methyl-4,4a,5,6-tetrahydropyrano[3,4-d][1,3]thiazin-8a(8H)-yl]-1,3-thiazol-4-yl}-5-methyl-1,2-oxazole-3-carboxamide, trifluoroacetate salt] was 2620 nM; that for `CC(C)Cc1cc(C(=O)Nc2csc([C@]34CO[C@@H](C)C[C@H]3CSC(N)=N4)n2)nn1C` [Example 65, N-{2-[(4aR,6S,8aR)-2-amino-6-methyl-4,4a,5,6-tetrahydropyrano[3,4-d][1,3]thiazin-8a(8H)-yl]-1,3-thiazol-4-yl}-1-methyl-5-(2-methylpropyl)-1H-pyrazole-3-carboxamide, trifluoroacetate salt] was 51000 nM. The value for `C[C@H]1C[C@H]2CSC(N)=N[C@@]2(c2nc(NC(=O)c3ccncn3)cs2)CO1` [Example 66, N-{2-[(4aR,6S,8aR)-2-amino-6-methyl-4,4a,5,6-tetrahydropyrano[3,4-d][1,3]thiazin-8a(8H)-yl]-1,3-thiazol-4-yl}pyrimidine-4-carboxamide, trifluoroacetate salt] was 575 nM; that for `Cc1cc(C(=O)Nc2csc([C@]34CO[C@@H](C)C[C@H]3CSC(N)=N4)n2)on1` [Example 67, N-{2-[(4aR,6S,8aR)-2-amino-6-methyl-4,4a,5,6-tetrahydropyrano[3,4-d][1,3]thiazin-8a(8H)-yl]-1,3-thiazol-4-yl}-3-methyl-1,2-oxazole-5-carboxamide, trifluoroacetate salt] was 5040 nM; that for `Cc1cnc(C(=O)Nc2csc([C@]34CO[C@@H](C)C[C@H]3CSC(N)=N4)n2)cn1` [Example 68, N-{2-[(4aR,6S,8aR)-2-amino-6-methyl-4,4a,5,6-tetrahydropyrano[3,4-d][1,3]thiazin-8a(8H)-yl]-1,3-thiazol-4-yl}-5-methylpyrazine-2-carboxamide, trifluoroacetate salt] was 2110 nM.

Turning to `CC(C)c1cc(C(=O)Nc2csc([C@]34CO[C@@H](C)C[C@H]3CSC(N)=N4)n2)n(C)n1` [Example 70, N-{2-[(4aR,6S,8aR)-2-amino-6-methyl-4,4a,5,6-tetrahydropyrano[3,4-d][1,3]thiazin-8a(8H)-yl]-1,3-thiazol-4-yl}-1-methyl-3-(propan-2-yl)-1H-pyrazole-5-carboxamide, trifluoroacetate salt], the IC50 came to 10400 nM. Under `CCc1cc(C(=O)Nc2csc([C@]34CO[C@@H](C)C[C@H]3CSC(N)=N4)n2)on1` [Example 71, N-{2-[(4aR,6S,8aR)-2-amino-6-methyl-4,4a,5,6-tetrahydropyrano[3,4-d][1,3]thiazin-8a(8H)-yl]-1,3-thiazol-4-yl}-3-ethyl-1,2-oxazole-5-carboxamide, trifluoroacetate salt] stands 9260 nM.

Take `CCn1cc(C(=O)Nc2csc([C@]34CO[C@@H](C)C[C@H]3CSC(N)=N4)n2)cn1` [Example 72, N-{2-[(4aR,6S,8aR)-2-amino-6-methyl-4,4a,5,6-tetrahydropyrano[3,4-d][1,3]thiazin-8a(8H)-yl]-1,3-thiazol-4-yl}-1-ethyl-1H-pyrazole-4-carboxamide, trifluoroacetate salt]: the IC50 stood at 7480 nM. For the compound `Cc1cc(C(=O)Nc2csc([C@]34CO[C@@H](C)C[C@H]3CSC(N)=N4)n2)nn1C` [Example 73, N-{2-[(4aR,6S,8aR)-2-amino-6-methyl-4,4a,5,6-tetrahydropyrano[3,4-d][1,3]thiazin-8a(8H)-yl]-1,3-thiazol-4-yl}-1,5-dimethyl-1H-pyrazole-3-carboxamide, trifluoroacetate salt], the IC50 was 12400 nM.
